“Also recorded” adds a separate entry of the source. Read-outs that look alike come from different tables or passages of the source.
Key:
mGluR1 = assay: Western blot mGluR1 expression in NAc-core and NAc-shell; format: in vivo, P rats; details: MC-100093 50 mg/kg or ceftriaxone 200 mg/kg i.p. 5 days; among all groups
Protocol: (§1) We used micro-punch procedure to dissect the subregions of the NAc such as NAc-core and NAc-shell as well as the subregions of prefrontal cortex such as infralimbic (IL) and prelimbic (PL) from the brain on day 6 after the last injection day. P rats were removed from the cage and rapidly euthanized by CO2 inhalation followed by rapid decapitation with a guillotine. Brains were isolated and immediately frozen on dry ice and stored at −80° C. The stereotaxic coordinates provided by Paxinos and colleague's rat brain stereotactic atlas was used to isolate NAc-core and NAc-shell using a cryostat apparatus (−20° C.), which then kept at −80° C. for later western blot analyses.
(§2) Western Blot assay was performed to measure changes in the expression of GLT-1, xCT, mGluR1, mGluR5, PPAR-α, PPARγ, GAPDH and β-tubulin in the NAc-core and NAc-shell as described in previous publications. A lysis buffer containing protease and phosphatase inhibitors was used to generate a homogenate of liver, Nac-core, and Nac-shell samples. The amount of protein was quantified using a detergent compatible protein assay (Bio-Rad, Hercules, CA, USA) for each sample. Samples were mixed with laemmli dye and loaded with equal amounts on polyacrylamide gels (10%), which separated the proteins using electrophoresis. After that, polyvinylidene difluoride (PVDF) membranes were used to transfer the proteins electrophoretically from the gels. Membranes were incubated in 5% free-fat milk in Tris-buffered saline with Tween-20 (TBST) for 30-60 minutes at room temperature. Membranes were then incubated with appropriate primary antibodies overnight at 4° C.: rabbit anti-GLT-1 (1:5000, Abcam, ab41621), rabbit anti-xCT (1:2000, Abcam, ab175186), rabbit anti-mGluR1 (1:1000, Abcam, ab82211), rabbit anti-mGluR5 (1:1000, Abcam, ab76316), rabbit anti-PPAR-α (1:1000, Abcam, ab24509), and rabbit anti-PPARγ (1:1000, Abcam, ab209350). Mouse anti-β-tubulin (1:1000; BioLegend) was used as a loading control antibody for the brain samples and rabbit anti-GAPDH (1:5000; cell signaling) was used as a loading control antibody for the liver samples. Membranes were washed five times on the next day with TBST followed by incubation with appropriate secondary antibody (1:5000) for 90 minutes at room temperature. Chemiluminescent reagents (Super Signal West Pico, Pierce Inc.) were used to detect the proteins using a GeneSys imaging system to develop the digitized blot images. Water-control group data were represented as 100% and all other values were expressed relative to control group to detect changes in the expression of the protein of interest in the brain and liver samples.
All statistical analyses were conducted with Graphpad Prism software, with p-values of 0.05 or less being statistically significant. […]

[1] = cited from earlier work
GLT-1 = assay: Western blot GLT-1 expression in NAc-core, NAc-shell and liver (50 mg/kg study); format: in vivo, P rats; details: MC-100093 50 mg/kg or ceftriaxone 200 mg/kg i.p. 5 days; for Protein expression of GLT-1 in the NAc-shell: vs Ethanol group
Protocol: as §1, §2
All statistical analyses were conducted with Graphpad Prism software, with p-values of 0.05 or less being statistically significant. We performed a two-way (mixed model) ANOVA followed by Bonferroni multiple comparison post-hoc test to analyze 24 h ethanol consumption, 24 h water consumption, and daily body weight. For the Western blot and oil red O staining analysis, we performed one-way ANOVA with Newman-Keuls as a post hoc multiple comparison test to measure differences between groups as a percentage (relative to control values).

HMGβ-1 = assay: Western blot HMGβ-1 in subregions of mPFC and NAc; format: in vivo, Male P rats
Protocol: All P rats were euthanized by CO2 inhalation and decapitated with a guillotine 24 hours after the final i.p. injection was administered on Day 6 of Week 6. Brains were removed and immediately frozen on dry ice and stored at −80° C. The mPFC subregions (infralimbic cortex and prelimbic cortex) and NAc subregions (core and shell) were dissected using a cryostat machine kept at −20° C. Surgical blades were used to dissect all brain regions following visualized landmarks using the stereotaxic coordinates provided by Paxinos and colleague's rat brain stereotactic atlas. All brain regions were stored in −80° C. Western Blot analyses.
Western blot was performed to determine the expression of BDNF, TNF-α, RAGE, HMGβ-1, and β-tubulin in the subregions of mPFC and NAc as preformed in previous studies.
Brain samples were lysed with a lysing buffer containing protease inhibitors. The amount of protein in each sample was quantified using a detergent compatible protein assay (Bio-Rad, Hercules, CA, USA). Polyacrylamide gels (10%) were loaded with the lysate mixture, and proteins were separated using gel electrophoresis for 1 hour. Proteins were then transferred from the gels onto Polyvinylidene difluoride (PVDF) membranes (BioRad). After transfer, membranes were incubated for 30 minutes in a mixture of nonfat milk in 1×Tris-buffered saline with Tween-20 (TBST) at room temperature. Membranes were then incubated at 4° C. for 24 hours with primary antibodies: anti-rabbit BDNF (1:1000, Abeam, #ab108319), anti-rabbit TNF-α (1:500, Abeam, #ab9739), anti-rabbit HMGβ-1 (1:500, Abeam, #ab18256), and anti-rabbit RAGE (1:1000, Abeam, #ab37407). Anti-mouse-β-tubulin (1:1000, Cell Signaling Technology, #D71G9) was used as a loading control antibody. After incubating for 24 hours, secondary antibody such as donkey anti-rabbit (1:4000, Invitrogen, #31458) or anti-mouse (1:4000, Cell Signaling, #7076S) was added to the membrane for 1 hour at room temperature. The membranes were then washed with 1×TBST three times for 5 minutes each and then dried. Membranes were then incubated in chemiluminescent reagents (Super Signal West Pico, Pierce Inc.) for 2 minutes. Blot images were developed using ChemiDoc. Imaging System and ImageJ software version 1.53a were used to quantify and analyze the expression of BDNF, TNF-α, RAGE, HMGβ-1, and β-tubulin.
The data for the water/saline control group were expressed as 100% based on the values corresponding to the ethanol/saline and ethanol/MC-100093 groups for each set of blotting. Thus, the expression of selected proteins for each group (ethanol/saline group or ethanol/MC-100093 group) was calculated relative to the water/saline control group being set to 100%.
Statistical analyses were performed using GraphPad Prism Version 10. Two-way repeated measures ANOVA followed by Bonferroni post-hoc tests were used to compare water and ethanol intake, and body weight, amongst water group, ethanol/saline group and ethanol/MC-100093 group. A one-way ANOVA test was performed to compare the expression of the studied proteins in selected brain regions in water/saline, ethanol/saline and ethanol/MC-100093 groups. Statistical significance was determined by a p-value of or less than 0.05.

[2] = 100 mg/kg i.p., compared to ethanol/saline group

C[C@@H](O)[C@H]1C(=O)N[C@@H]1[C@@H](C)C(=O)N1CCN(C)CC1 [MC-100093]
Protein expression of mGluR1 in the NAc-core (mGluR1): non-significant difference; also recorded: no significant difference
Protein expression of mGluR1 in the NAc-shell (mGluR1): non-significant differences; also recorded: no significant difference
Brain/plasma ratio ([1]; after intraperitoneal (i.p) injection): 14%
Oral bioavailability (in words) ([1]; following oral administration): orally bioavailable; also recorded: high oral bioavailability; also recorded: some bioavailability
In vivo half-life ([1]; intraperitoneal route): 4.2 h
In vivo half-life ([1]; oral route): 5.26 h
Oxidative metabolism ([1]; rat, in vivo): no oxidative metabolism
Oral bioavailability (F) ([1]; rats): 28%
Protein expression of GLT-1 in the liver (GLT-1): normalized GLT-1 level; also recorded: normalize the PPAR-α and GLT-1 levels in the liver
Protein expression of GLT-1 in the NAc-core (GLT-1; among Control, Ethanol, Ethanol-MC, Ethanol-CEF): non-significant difference; also recorded: no significant difference
Protein expression of GLT-1 in the NAc-shell (GLT-1): normalized GLT-1 and xCT levels in the NAc-shell
Protein expression of GLT-1 in the NAc-shell (GLT-1; listed as MC-100095): significantly increased
HMGβ-1 expression in the NAc shell (HMGβ-1; 100 mg/kg i.p., compared to ethanol group): decreased the expression of HMGβ-1
HMGβ-1 expression in the IL (HMGβ-1; [2]): decreased HMGβ-1 expression
HMGβ-1 expression in the NAc core (HMGβ-1; [2]): decreased the expression of HMGβ-1
HMGβ-1 expression in the PL (HMGβ-1; [2]): decreased the expression of HMGβ-1
HMGβ-1 expression in IL, PL, NAc core and NAc shell (summary) (HMGβ-1; post-treatment with MC-100093 100 mg/kg i.p., 100 mg/kg): normalized HMGβ-1 expression in all these brain regions; also recorded: attenuated ethanol-induced upregulation of pro-inflammatory cytokines such as TNF-a and HMGB1

From patent US20250057808A1, “COMPOSITION COMPRISING BETA LACTAM FOR TREATING ALCOHOL DEPENDENCE AND ALCOHOL ASSOCIATED DISEASES OR CONDITIONS” (Temple University of the Commonwealth System of Higher …, priority 2023, published 2025)
